{"source": "patent US12590953B2", "about": "“Methods for screening cereblon modifying compounds” (CELGENE CORPORATION, priority 2018, dated 2026)", "key": {"ZFP91 [1]": {"molecular_target": "T1, ZFP91 (Mus musculus, UniProt Q62511)", "experiment": "ZFP91 immunohistochemistry in huCRBN mouse testis", "type": "in vivo", "parameters": "from tissue; host or cells: testis of homozygous huCRBN knock-in mice", "details": "huCRBN mice, 1000 mg/kg for 7 days", "description": "(§1) The SALL4 and ZFP91 protein levels were examined by immunohistochemistry in rabbit, wild-type mouse, and humanized cereblon mouse testes. […] HuCRBN Mice were treated for 7 days and testis were collected and examined by immunohistochemistry (n=3 animals per treatment group per species).\n(§2) Rabbit embryos were stained for SALL4, and mouse testis were stained for SALL4 and ZFP91. Immunohistochemistry (IHC) was performed on the Bond-III automated slide stainer (Leica Microsystems, Buffalo Grove, Ill.) using the Bond Polymer Refine Detection system (Leica Microsystems, DS9800). Formalin fixed paraffin embedded (FFPE) tissues were sectioned at four micron thick and deparaffinized on the Bond-Max instrument. Antigen retrieval was performed with Epitope Retrieval 2 (ER2, pH 9.0) for 20 min at 100° C. The slides were blocked for endogenous peroxidase activity with Peroxide Block for 5 minutes at room temperature. Sections were then incubated with the mouse monoclonal anti-SALL4 EE-30 antibody (Santa Cruz, sc-101147) at a 1:100 dilution for 60 min at room temperature, or with the rabbit monoclonal anti-ZFP91 antibody (Celgene custom clone 122-8-6) at 0.25 ug/ml. For mouse testis, primary antibodies were incubated for 15 min at room temperature, and Post-Primary and horseradish peroxidase (HRP) labeled Polymer were incubated at the instrument's default conditions. […]"}, "ZFP91 [2]": {"molecular_target": "T1, ZFP91", "experiment": "ZFP91 immunohistochemistry in wild-type mouse testis", "type": "in vivo", "parameters": "tissue Taconic; host or cells: wild-type mouse testis (C57Bl/6Ntac)", "details": "wild type mice, 1000 mg/kg", "description": "as §1, §2"}, "SALL4 mRNA [3]": {"test_system": "SALL4 mRNA", "experiment": "In situ hybridization for SALL4 RNA in rabbit embryo limb buds", "type": "in vivo", "details": "treated vs untreated", "description": "A fully automated SALL4 ISH assay was performed on Leica BOND RX IHC & ISH stainer with the BOND Research Detection System (Leica, Cat. No. DS9455). Formalin fixed paraffin embedded (FFPE) rabbit embryos were sectioned at four micron thickness, baked at 60° C. for 1 hour and then deparaffinized in Dewax solution at 72° C. Antigen retrieval was performed in Epitope Retrieval 2 (ER2, pH 9.0) for 15 min at 95° C. Custom-designed rabbit SALL4 target probe was applied on the slides and incubated at 42° C. for 2 hours. SALL4 signal was then amplified with the RNAscope LS Multiplex Fluorescent Reagent Kit (ACD, Cat. No. 322800) using the BOND RX default ACD ISH protocol. SALL4 signal was detected with Opal TSA fluorophore 570 (PerkinElmer, Cat. No. FP1488001KT) at a 1:1500 dilution for a 30 min incubation. Slides were then coverslipped manually using ProLong Diamond Antifade Mountant with DAPI (Life Technology, Catalog No. P36966). After whole slide scan at 4× magnification was completed, 40× magnification images were acquired using Perkin Elmer Vectra 3.0 multispectral image platform."}, "SALL4 mRNA [4]": {"test_system": "SALL4 mRNA", "experiment": "qRT-PCR of SALL4 mRNA in human iPS cells", "type": "cell-based", "details": "20 μM thalidomide, 16 hours, normalized with GAPDH", "description": "Quantitative RT-PCR analysis was performed to human iPS cells treated with DMSO or 20 μM thalidomide (THA) for 16 hours. The relative mRNA level of SALL4 and POU5F1(OCT4) was normalized with GAPDH (n=2, biological replicates).\nTotal RNA was extracted from human iPS cells using RNeasy Mini Kit (Qiagen) according to manufacturer's instruction, and reverse-transcribed into first-strand cDNA with random primer using SuperScript™ IV First-Strand Synthesis System (ThermoFisher). Real-time PCR was performed in triplicate using ViiA 7 Real-Time PCR System with TaqMan Gene Expression Assay probes (ThermoFisher) for SALL4 (#4351372), POU5F1(#4331182) and GAPDH (#4326317E)."}}, "note": "Entries after “also recorded” stand apart in the source; their conditions may differ."}
{"compound": "O=C1CCC(N2C(=O)c3ccccc3C2=O)C(=O)N1", "note": "(stereo not shown) [thalidomide]", "values": [{"measurement": "ZFP91 protein levels in testis", "setting": "ZFP91 [1]", "result": "robustly downregulated; also recorded: caused degradation of ZFP91 but not SALL4"}, {"measurement": "ZFP91 protein levels in testis", "setting": "ZFP91 [2]", "result": "exhibited no depletion of SALL4 or ZFP91; also recorded: did not cause significant degradation of either ZFP91 or SALL4"}, {"measurement": "SALL4 mRNA levels (ISH)", "setting": "SALL4 mRNA [3]", "result": "not altered upon thalidomide treatment"}, {"measurement": "SALL4 mRNA levels", "setting": "SALL4 mRNA [4]", "result": "not reduced by thalidomide treatment (FIG. 7E), and are instead increased; also recorded: decrease in SALL4 protein levels is not due to transcriptional downregulation"}]}
